Data taken from paper PMC8317065, “UPLC-MS/MS Method for Analysis of Endocannabinoid and Related Lipid Metabolism in Mouse Mucosal Tissue” (Frontiers in Physiology, 2021).

Tests used:
DGL = DGL activity assay, UPLC-MS/MS, lung protein isolates; assay type: biochemical, mouse; conditions: for DAG metabolism (normalized response): lung protein 50 μg
Experimental: Homogenized samples were centrifuged at 800 × g for 15 m at 4°C. The supernatant was collected in a 2.0 mL centrifuge tube and sonicated twice for 10 s. Samples underwent two sequential freeze thaw cycles using liquid N2. Samples were again centrifuged at 800 × g, 15 min, 4°C and the supernatant was collected. Total protein was then quantified via BCA assay and normalized between all samples. Protein isolations for each assay and each tissue were performed separately.
Substrate solutions were prepared by drying stock 19:2 DAG (20 nmol/reaction) under N2 steam (99.998% pure) and reconstituted in a solution of 50 mM Tris–HCl with 0.2% Triton x-100 (pH = 7.0). This solution was bath sonicated for 60 min at room temperature while protein samples were prepared. […] In addition, the ABHD6 inhibitor, WWL 70 (10 μM), was added to lung protein isolates for the 10-minute room temperature incubation to ensure the product of interest was not metabolized ([Tchantchou and Zhang, 2013]). Dose-inhibition experiments included addition of the DGL inhibitor, THL [albeit not selective for DGL, see [Hoover et al. (2008)]; [DiPatrizio et al. (2015)]]. […] The products of the reaction were extracted via lipid extraction methods (see section “Lipid Extraction for Enzyme Assays”) and quantified via UPLC-MS/MS (see section “Quantitation of MAG Biosynthetic Enzyme Activity Assay Products”).
Lipids were extracted using liquid-liquid extraction with chloroform (2.0 mL) followed by 0.8 mL 0.2-micron ultra-purified water. […] Products were detected and quantified via UPLC-MS/MS techniques (see section “UPLC-MS/MS Detection of Analytes”).
Analytes were eluted at a flow rate of 0.4 mL/min and gradient: 80% methanol 0.0–0.5 min, 80–100% methanol 0.5–2.5 min, 100% methanol 2.5–3.0 min, 100–80% methanol 3.0–3.1 min, and 80% methanol 3.1–4.5 min. […] Lipids were quantified using a stable isotope serial dilution method detecting H^+ or Na^+ adducts of the molecular ions [M + H/Na]^+ in multiple reactions monitoring (MRM) mode (variable amounts of product 19:2 MAG versus fixed amount of internal standard [^2H5]-2-AG). […]

human recombinant DGL = tested on: human recombinant DGL; design: method as in Bisogno et al., 2006; conditions: ref Bisogno et al., 2006, read-out: IC50 reported for human recombinant DGL; cited from earlier work

In the case of `CCCCCCCCCCC[C@@H](C[C@@H]1OC(=O)[C@H]1CCCCCC)OC(=O)[C@H](CC(C)C)NC=O` [THL, tetrahydrolipstatin], the “DAG metabolism (normalized response)” value (DGL; highest inhibitor concentration of range (1,000 nM)) is reported as 10.19 ± 0.29%, the “DAG metabolism (normalized response)” value (DGL; lowest inhibitor concentration of range (3 nM)) is reported as 90.26 ± 9.07% and the IC50 (DGL; mouse lung protein isolates 50 μg, THL 3-1,000 nM, read-out: IC50, inhibition of DAG metabolism (DGL activity)) is reported as 74.6 nM. For the same molecule, the IC50 (human recombinant DGL) was 60 nM.
